Each block holds one molecule with its values, some of them ahead of it.
Tests used:
[1] = biological target: T1, NHE9* (Equus caballus, UniProt F7B113); assay: GFP-based thermal shift assay; type: binding; conditions: 0.1 mg/ml lipid; DDM, CHS, octyl glucoside; NHE9*-GFP fusion
T1 construct: gene SLC9A9; residues 8-575 of 644, C-terminally truncated; TEV-GFP-TwinStrep-His8 from S. cerevisiae FGY217; GFP kept for thermal shift, cut for cryo-EM; homodimer
T1 sequence (F7B113 8-575): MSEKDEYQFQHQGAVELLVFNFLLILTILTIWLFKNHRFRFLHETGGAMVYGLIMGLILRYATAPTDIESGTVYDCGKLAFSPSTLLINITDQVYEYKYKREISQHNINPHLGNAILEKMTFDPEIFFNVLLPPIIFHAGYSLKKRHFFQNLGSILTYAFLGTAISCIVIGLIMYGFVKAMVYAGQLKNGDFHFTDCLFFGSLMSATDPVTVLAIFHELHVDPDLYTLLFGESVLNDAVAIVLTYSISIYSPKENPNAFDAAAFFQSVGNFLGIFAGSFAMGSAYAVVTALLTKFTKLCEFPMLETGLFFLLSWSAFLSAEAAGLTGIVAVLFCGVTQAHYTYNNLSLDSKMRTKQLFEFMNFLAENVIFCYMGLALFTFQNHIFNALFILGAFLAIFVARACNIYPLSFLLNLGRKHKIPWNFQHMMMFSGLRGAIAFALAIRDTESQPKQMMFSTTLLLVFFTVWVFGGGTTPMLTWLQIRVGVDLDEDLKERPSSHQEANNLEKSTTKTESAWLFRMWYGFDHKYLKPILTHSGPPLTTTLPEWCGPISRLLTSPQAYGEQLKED

[2] = biological target: T2, EcNhaA-mut2 (Escherichia coli, UniProt P13738, A109T/Q277G/L296M); assay: cryo-EM structure; type: binding; conditions: pH 7.5; DDM; 3 mM cardiolipin added; three lipids at dimer interface; 3.3 A
T2 construct: gene nhaA; from E. coli Lemo21(DE3); homodimer

[3] = biological target: the molecule itself; assay: cryo-EM structure; NHE9* at pH 6.5, 20 mM Mes-Tris, 150 mM NaCl, 0.003% LMNG, 0.0006% CHS; C2 symmetry; AlphaFold2 multimer model refined into a composite map
[4] = biological target: the molecule itself; assay: cryo-EM structure; NHE9*CC purified with bovine brain lipid extract, 20 mM Tris-HCl pH 8, 150 mM NaCl, 0.003% LMNG, 0.0006% CHS; C2 symmetry; two PI(3,5)P2 modelled at the dimer interface
[5] = biological target: T3, E. coli NhaA WT-like triple mutant (A109T, Q277G, L296M) (E. coli), P13738; assay: cryo-EM structure; NhaA triple-mutant-GFP fusion in DDM with 3 mM cardiolipin (18:1) added, 20 mM Tris-HCl pH 7.5, 150 mM NaCl, 0.03% DDM; three cardiolipins modelled at the dimer interface; conditions: remark: other sources report otherwise
T3 chain: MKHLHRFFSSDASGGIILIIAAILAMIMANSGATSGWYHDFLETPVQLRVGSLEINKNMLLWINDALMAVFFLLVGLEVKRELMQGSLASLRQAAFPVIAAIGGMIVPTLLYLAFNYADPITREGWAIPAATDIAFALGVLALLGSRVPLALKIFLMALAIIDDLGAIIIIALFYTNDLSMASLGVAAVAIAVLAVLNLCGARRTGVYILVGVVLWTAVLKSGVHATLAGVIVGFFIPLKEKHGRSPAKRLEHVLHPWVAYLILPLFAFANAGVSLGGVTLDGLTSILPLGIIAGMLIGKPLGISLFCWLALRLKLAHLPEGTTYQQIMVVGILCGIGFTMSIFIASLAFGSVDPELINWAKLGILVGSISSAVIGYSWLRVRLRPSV

Molecule: CCCCCCCC/C=C\CCCCCCCC(=O)OC[C@H](COP(=O)(O)OCC(O)COP(=O)(O)OC[C@@H](COC(=O)CCCCCCC/C=C\CCCCCCCC)OC(=O)CCCCCCC/C=C\CCCCCCCC)OC(=O)CCCCCCC/C=C\CCCCCCCC (stereo partly drawn) [cardiolipin (18:1)]
- cryo-EM structure [2]: map density supported the modelling of cardiolipin at the dimerization interface

B1: E. caballus NHE9* (residues 8 to 575), tag removed (domain or fragment, Equus caballus, UniProt F7B113 8-575, looked up)
chain: MSEKDEYQFQHQGAVELLVFNFLLILTILTIWLFKNHRFRFLHETGGAMVYGLIMGLILRYATAPTDIESGTVYDCGKLAFSPSTLLINITDQVYEYKYKREISQHNINPHLGNAILEKMTFDPEIFFNVLLPPIIFHAGYSLKKRHFFQNLGSILTYAFLGTAISCIVIGLIMYGFVKAMVYAGQLKNGDFHFTDCLFFGSLMSATDPVTVLAIFHELHVDPDLYTLLFGESVLNDAVAIVLTYSISIYSPKENPNAFDAAAFFQSVGNFLGIFAGSFAMGSAYAVVTALLTKFTKLCEFPMLETGLFFLLSWSAFLSAEAAGLTGIVAVLFCGVTQAHYTYNNLSLDSKMRTKQLFEFMNFLAENVIFCYMGLALFTFQNHIFNALFILGAFLAIFVARACNIYPLSFLLNLGRKHKIPWNFQHMMMFSGLRGAIAFALAIRDTESQPKQMMFSTTLLLVFFTVWVFGGGTTPMLTWLQIRVGVDLDEDLKERPSSHQEANNLEKSTTKTESAWLFRMWYGFDHKYLKPILTHSGPPLTTTLPEWCGPISRLLTSPQAYGEQLKED
notes: Endosomal Na+/H+ exchanger NHE9 (SLC9A9), Equus caballus, partially truncated on the C-terminal tail, residues 8 to 575 out of a total of 644; also called SLC9A9; not shown: GFP, C-terminal, cleaved; TwinStrep, C-terminal, cleaved; His8, C-terminal, cleaved
- stoichiometry N [3]: 2

B2: E. caballus NHE9*CC (NHE9* L139C-I444C double mutant) (domain or fragment, Equus caballus, UniProt F7B113 8-575, looked up)
chain: MSEKDEYQFQHQGAVELLVFNFLLILTILTIWLFKNHRFRFLHETGGAMVYGLIMGLILRYATAPTDIESGTVYDCGKLAFSPSTLLINITDQVYEYKYKREISQHNINPHLGNAILEKMTFDPEIFFNVLCPPIIFHAGYSLKKRHFFQNLGSILTYAFLGTAISCIVIGLIMYGFVKAMVYAGQLKNGDFHFTDCLFFGSLMSATDPVTVLAIFHELHVDPDLYTLLFGESVLNDAVAIVLTYSISIYSPKENPNAFDAAAFFQSVGNFLGIFAGSFAMGSAYAVVTALLTKFTKLCEFPMLETGLFFLLSWSAFLSAEAAGLTGIVAVLFCGVTQAHYTYNNLSLDSKMRTKQLFEFMNFLAENVIFCYMGLALFTFQNHIFNALFILGAFLAIFVARACNIYPLSFLLNLGRKHKIPWNFQHMMMFSGLRGACAFALAIRDTESQPKQMMFSTTLLLVFFTVWVFGGGTTPMLTWLQIRVGVDLDEDLKERPSSHQEANNLEKSTTKTESAWLFRMWYGFDHKYLKPILTHSGPPLTTTLPEWCGPISRLLTSPQAYGEQLKED
notes: Endosomal Na+/H+ exchanger NHE9 (SLC9A9), Equus caballus, residues 8 to 575 out of a total of 644, with L139C and I444C; also called cysteine variant; not shown: GFP, C-terminal, cleaved; TwinStrep, C-terminal, cleaved; His8, C-terminal, cleaved
- stoichiometry N [4]: 2

Further lines, results first:

- dTm [1]: 15 °C
Molecule: CCCCCCCCCCCCCCCC(=O)OC[C@H](COP(=O)(O)O[C@@H]1[C@H](O)[C@H](OP(=O)(O)O)[C@@H](O)[C@H](OP(=O)(O)O)[C@H]1O)OC(=O)CCCCCCCCCCCCCCC [PI(3,5)P2 dipalmitoyl]

- dTm [1]: 8 °C
Molecule: CCCCCCCC(=O)OC[C@H](COP(=O)(O)O[C@@H]1[C@H](O)[C@H](O)[C@@H](OP(=O)(O)O)[C@H](OP(=O)(O)O)[C@H]1O)OC(=O)CCCCCCC [PI(4,5)P2 dioctanoyl]

- stoichiometry N [5]: 2
B3: E. coli NhaA WT-like triple mutant (A109T, Q277G, L296M), P13738 1-388 (natural protein)
chain: MKHLHRFFSSDASGGIILIIAAILAMIMANSGATSGWYHDFLETPVQLRVGSLEINKNMLLWINDALMAVFFLLVGLEVKRELMQGSLASLRQAAFPVIAAIGGMIVPTLLYLAFNYADPITREGWAIPAATDIAFALGVLALLGSRVPLALKIFLMALAIIDDLGAIIIIALFYTNDLSMASLGVAAVAIAVLAVLNLCGARRTGVYILVGVVLWTAVLKSGVHATLAGVIVGFFIPLKEKHGRSPAKRLEHVLHPWVAYLILPLFAFANAGVSLGGVTLDGLTSILPLGIIAGMLIGKPLGISLFCWLALRLKLAHLPEGTTYQQIMVVGILCGIGFTMSIFIASLAFGSVDPELINWAKLGILVGSISSAVIGYSWLRVRLRPSV
